Where two headings read alike, the source gives them in different places.
Key:
Assay type in all cases: biochemical
human DYRK1A = molecular target: T1, human DYRK1A (Homo sapiens, UniProt Q13627); experiment: DYRK1A enzyme assay (ADP-Glo)
T1 construct: Recombinant full-length DYRK1A (expressed in E. Coli cells with an N-terminal GST tag); GST (N); purchased SignalChem D09-10G; host or cells: E. coli
How it was run: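 ADP formed is quantified by luciferase luminescence (ADP-Glo) after a 60-minute, 25 °C reaction with 60 μM ATP and 20 μM DYRKtide peptide. Enzyme: 3 nM recombinant N-terminal GST DYRK1A, given 30 min compound preincubation in Tris pH 7.5/MgCl2/BSA/DTT buffer; % inhibition versus plate controls, four-parameter IC50.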

human CLK1 = molecular target: T2, human CLK1 (Homo sapiens, UniProt P49759); experiment: CLK1 enzyme assay (ADP-Glo)
T2 construct: Recombinant human CLK1 (129-end); GST (N); purchased SignalChem C57-11G; host or cells: Sf9 insect cells
How it was run: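 GST-tagged CLK1 (129-end, Sf9-expressed) at 16 nM was preincubated with compound 30 min at 25 °C in 40 mM Tris pH 7.5, 20 mM MgCl2, 0.1 mg/ml BSA, 50 μM DTT. Reaction with 2 μM substrate and 10 μM ATP ran 60 min at 25 °C. ADP-Glo luminescence gave IC50 by four-parameter fit.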

human CIT = molecular target: T3, human CIT (Homo sapiens, UniProt O14578); experiment: CIT enzyme assay (ADP-Glo)
T3 construct: Recombinant human CIT (1-499); GST (N); purchased SignalChem C52-11G; host or cells: Sf9 insect cells
Procedure: The ability of compounds to inhibit human CIT kinase activities was determined using a commercially available ADP-Glo™ Kinase Assay kit (Promega, Cat #V9102) according to the manufacturer's protocol.
Recombinant human CIT (1-499) (expressed in Sf9 insect cells with an N-terminal GST tag) was purchased from SignalChem (Cat #C52-11G). Recombinant full length human MBP (expressed in E. Coli cells with an N-terminal GST tag) was purchased from SignalChem (Cat #M42-54G). This assay, run in a 384-well plate format, is a generic method for measuring kinase activities using an ADP-Glo Kinase Assay Kit. The basic assay procedure involves two steps: (1) Enzymatic step: inhibitors are incubated with the kinase and then ATP (included in the ADP-Glo Kinase Assay Kit) and the MBP protein are added to start the enzymatic reaction; (2) Detection step: after the kinase reaction, first ADP-Glo™ Reagent is added to terminate the kinase reaction and deplete the remaining ATP. Second, the Kinase Detection Reagent is added to simultaneously convert ADP to ATP and allow the newly synthesized ATP to be measured using a luciferase/luciferin reaction. The light generated is measured using a luminometer.
Briefly, CIT (20 nM) in the enzymatic buffer solutions (40 mM Tris, pH 7.5, 20 mM MgCl2, 0.1 mg/ml BSA, 50 μM DTT) were mixed with various concentrations of inhibitors (dissolved in 100% DMSO). These solutions were incubated for 30 minutes at 25° C., and subsequently a mixture of substrate peptide and ATP was added with the final peptide and ATP concentrations at 0.05 mg/ml and 5 μM, respectively. The final reaction mixture of enzyme-substrate-ATP-compound was incubated for 90 minutes at 25° C.
Afterwards ADP-Glo™ Reagent was added and the mixture was incubated at 25° C. for 60 minutes. Then Kinase Detection Reagent was added, and the final mixture was incubated at 25° C. for 60 minutes. The luminescence signal of the final solution was measured on an Envision instrument (PerkinElmer). The percent (%) inhibition at each concentration of a compound is calculated relative to the luminescence signal in the Max and Min control wells contained within each assay plate. […] The concentrations and percent inhibition values for a test compound are plotted and the concentration of the compound required to achieve 50% inhibition (IC50) is determined with a four-parameter logistic dose response equation.

[1] = ADP-Glo, ATP 60 μM, read-out: DYRK1A IC50
[2] = ADP-Glo, ATP 10 μM, read-out: CLK1 IC50
[3] = ADP-Glo, ATP 5 μM, read-out: CIT IC50

T2 sequence (P49759 129-484 limits assumed): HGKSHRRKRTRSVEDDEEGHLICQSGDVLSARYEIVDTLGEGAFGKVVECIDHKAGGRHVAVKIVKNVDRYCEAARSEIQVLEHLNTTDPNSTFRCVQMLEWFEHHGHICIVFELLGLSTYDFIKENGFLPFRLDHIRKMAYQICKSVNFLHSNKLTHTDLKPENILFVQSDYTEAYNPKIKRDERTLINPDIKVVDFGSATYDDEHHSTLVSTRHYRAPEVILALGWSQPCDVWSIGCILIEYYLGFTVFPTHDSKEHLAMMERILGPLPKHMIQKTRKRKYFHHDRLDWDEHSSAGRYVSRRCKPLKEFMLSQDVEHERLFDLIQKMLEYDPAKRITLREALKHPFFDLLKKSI
T3 sequence (O14578 1-499): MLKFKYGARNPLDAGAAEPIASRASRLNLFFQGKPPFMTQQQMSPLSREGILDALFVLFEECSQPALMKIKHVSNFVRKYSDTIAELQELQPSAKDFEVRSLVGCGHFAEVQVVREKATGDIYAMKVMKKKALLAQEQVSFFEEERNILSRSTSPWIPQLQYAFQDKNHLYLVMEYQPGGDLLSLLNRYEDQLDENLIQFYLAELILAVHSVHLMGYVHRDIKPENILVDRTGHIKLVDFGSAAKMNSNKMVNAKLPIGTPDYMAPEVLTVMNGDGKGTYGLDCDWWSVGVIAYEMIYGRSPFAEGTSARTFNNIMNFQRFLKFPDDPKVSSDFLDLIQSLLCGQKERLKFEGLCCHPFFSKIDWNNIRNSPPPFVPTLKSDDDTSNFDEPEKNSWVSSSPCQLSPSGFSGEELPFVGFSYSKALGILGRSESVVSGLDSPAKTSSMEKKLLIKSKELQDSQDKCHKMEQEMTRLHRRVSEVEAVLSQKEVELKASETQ

Compound | IC50 (human DYRK1A; [1]) [nM] | IC50 (human CLK1; [2]) [nM] | further results
CCN(C1=N/C(=C\c2ccc3c(c2)OCO3)C(=O)N1)c1ccccc1 [Example 4, (Z)-5-(benzo[d][1,3]dioxol-5-ylmethylene)-2-(ethyl(phenyl)amino)-3,5-dihydro-4H-imidazol-4-one] | 100 to 1000 | 100 to 1000 | IC50 (human CIT; [3]): > 10 µM
CC(=O)N(C1=N/C(=C\c2ccc3c(c2)OCO3)C(=O)N1)c1ccccc1 [Example 5, (Z)—N-(4-(benzo[d][1,3]dioxol-5-ylmethylene)-5-oxo-4,5-dihydro-1H-imidazol-2-yl)-N-phenylacetamide] | – | – | IC50 (human DYRK1A): < 100 nM; IC50 (human CLK1): 100 to 1000 nM; IC50 (human CIT): > 10 µM
CN(C1=N/C(=C\c2ccc3ncccc3c2)C(=O)N1)c1ccc2ncsc2c1 [Example 85, (Z)-2-(benzo[d]thiazol-6-yl(methyl)amino)-5-(quinolin-6-ylmethylene)-3,5-dihydro-4H-imidazol-4-one] | 100 to 1000 | 100 to 1000 | –
CN(C1=N/C(=C\c2ccc3ncsc3c2)C(=O)N1)c1ccc2c(c1)ncn2C [Example 86, (Z)-5-(benzo[d]thiazol-6-ylmethylene)-2-(methyl(1-methyl-1H-benzo[d]imidazol-5-yl)amino)-3,5-dihydro-4H-imidazol-4-one] | 1000 to 10000 | 1000 to 10000 | –
CN(C1=N/C(=C\c2ccc3[nH]ccc3c2)C(=O)N1)c1ccc2ncsc2c1 [Example 87, (Z)-5-((1H-indol-5-yl)methylene)-2-(benzo[d]thiazol-6-yl(methyl)amino)-3,5-dihydro-4H-imidazol-4-one] | > 10000 | > 10000 | –
CN1C(=O)/C(=C/c2ccc3ncsc3c2)N=C1Nc1ccc2ncsc2c1 [Example 88, (Z)-2-(benzo[d]thiazol-6-ylamino)-5-(benzo[d]thiazol-6-ylmethylene)-3-methyl-3,5-dihydro-4H-imidazol-4-one] | < 100 | < 100 | –
COCCN(C1=N/C(=C\c2ccc3ncsc3c2)C(=O)N1)c1ccc2ncsc2c1 [Example 89, (Z)-2-(benzo[d]thiazol-6-yl(2-methoxyethyl)amino)-5-(benzo[d]thiazol-6-ylmethylene)-3,5-dihydro-4H-imidazol-4-one] | 100 to 1000 | < 100 | –
Cc1nc2ccc(NC3=N/C(=C\c4ccc5ncsc5c4)C(=O)N3)cc2s1 [Example 90, (Z)-5-(benzo[d]thiazol-6-ylmethylene)-2-((2-methylbenzo[d]thiazol-6-yl)amino)-3,5-dihydro-4H-imidazol-4-one] | < 100 | < 100 | IC50 (human CIT; [3]): > 10 µM
CC(=O)N(C1=N/C(=C\c2ccc3ncsc3c2)C(=O)N1)c1ccc2ncsc2c1 [Example 91, (Z)—N-(benzo[d]thiazol-6-yl)-N-(4-(benzo[d]thiazol-6-ylmethylene)-5-oxo-4,5-dihydro-1H-imidazol-2-yl)acetamide] | < 100 | < 100 | –
O=C1NC(Nc2ccc3ncsc3c2)=N/C1=C\c1cncs1 [Example 92, (Z)-2-(benzo[d]thiazol-6-ylamino)-5-(thiazol-5-ylmethylene)-3,5-dihydro-4H-imidazol-4-one] | 100 to 1000 | < 100 | –
Cn1cnc2ccc(NC3=N/C(=C\c4ccc5ncsc5c4)C(=O)N3)cc21 [Example 93, (Z)-5-(benzo[d]thiazol-6-ylmethylene)-2-((1-methyl-1H-benzo[d]imidazol-6-yl)amino)-3,5-dihydro-4H-imidazol-4-one] | < 100 | < 100 | –
O=C1NC(Nc2ccc3ncsc3c2)=N/C1=C\c1ccc2nccnc2c1 [Example 94, (Z)-2-(benzo[d]thiazol-6-ylamino)-5-(quinoxalin-6-ylmethylene)-3,5-dihydro-4H-imidazol-4-one] | – | > 10000 | –
O=C1NC(Nc2ccc3ncsc3c2)=N/C1=C\c1ccc2cn[nH]c2c1 [Example 95, (Z)-5-((1H-indazol-6-yl)methylene)-2-(benzo[d]thiazol-6-ylamino)-3,5-dihydro-4H-imidazol-4-one] | > 10000 | > 10000 | –
O=C1NC(=S)N/C1=C\c1ccc2sccc2c1 [Example 96, (Z)-5-(benzo[b]thiophen-5-ylmethylene)-2-thioxoimidazolidin-4-one] | > 10000 | > 10000 | –
O=C1NC(Nc2ccc3nc[nH]c3c2)=N/C1=C\c1ccc2ncsc2c1 [Example 97, (Z)-2-((1H-benzo[d]imidazol-6-yl)amino)-5-(benzo[d]thiazol-6-ylmethylene)-3,5-dihydro-4H-imidazol-4-one] | – | 100 to 1000 | –
Nc1ccc(NC2=N/C(=C\c3ccc4ncsc4c3)C(=O)N2)cc1 [Example 98, (Z)-2-((4-aminophenyl)amino)-5-(benzo[d]thiazol-6-ylmethylene)-3,5-dihydro-4H-imidazol-4-one] | – | < 100 | IC50 (human CIT; [3]): 0.1 to 1 µM
O=C1NC(N(Cc2ccccc2)c2ccc3ncsc3c2)=N/C1=C\c1ccc2ncsc2c1 [Example 99, (Z)-2-(benzo[d]thiazol-6-yl(benzyl)amino)-5-(benzo[d]thiazol-6-ylmethylene)-3,5-dihydro-4H-imidazol-4-one] | 100 to 1000 | < 100 | –
CC(C)Nc1nc2ccc(NC3=N/C(=C\c4ccc5ncsc5c4)C(=O)N3)cc2s1 [Example 100, (Z)-5-(benzo[d]thiazol-6-ylmethylene)-2-((2-(isopropylamino)benzo[d]thiazol-6-yl)amino)-3,5-dihydro-4H-imidazol-4-one] | 100 to 1000 | 1000 to 10000 | –
O=C1NC(Nc2ccc3sccc3c2)=N/C1=C\c1ccc2ncsc2c1 [Example 101, (Z)-2-(benzo[b]thiophen-5-ylamino)-5-(benzo[d]thiazol-6-ylmethylene)-3,5-dihydro-4H-imidazol-4-one] | – | 100 to 1000 | –
